Laboratory results reported in patent publication US20130274352A1, “Oral Drug Devices and Drug Formulations” (The Regents of the University of California, priority 2009, published 2013).
Read-outs that look alike come from different tables or passages of the source.

How the values were obtained:
[1] = tested on: Caco-2 cells; experiment: Toxicity potential (TP) by MTT assay and synergy (S) of mixtures; assay type: cell-based, human
Method: As used herein “toxicity potential” or “TP” is used to assess the safety of CPEs and refers to the toxicity of one or more CPEs as determined using a Methyl Thiazole Tetrazolium (MTT) kit (American Type Culture Collection, Rockville, Md.). Caco-2 cells were seeded at 10^5 cells/well onto a 96-well plate. Enhancer solutions (100 μl) were applied for 30 minutes. 10 μl of reagent from an MTT kit (American Type Culture Collection, Rockville, Md.) was applied to each well for 5 hours, after which 100 μl of detergent was applied to each well and allowed to incubate in the dark at room temperature for about 40 hours. Absorbance was read at 570 nm (MTT dye) and 650 nm (detergent).
TP values are reported as the fraction of nonviable cells, as compared to the negative control, DMEM. TP values range from 0 to 1, with 0 indicating no mitrochondrial toxicity, and 1 representing maximum toxicity.
As used herein “synergy” or “S” refers to the difference between the linear average of the toxicity of the individual components and the experimentally measured toxicity of the mixture. Synergy was calculated as follows:
S=[X1·TP1+X2·TP2+X3·TP3]−TPmix Eq. 3
where X1, X2, and X3 are the weight fractions of single enhancers 1, 2, and 3, respectively, and TP1, TP2, TP3, and TPmix are the toxicity potentials of pure CPE 1, pure CPE 2, pure CPE 3, and the mixture of CPEs at the corresponding weight fractions X1, X2, and X3. All TP values in the equation above are obtained at the same total concentration. Since TP values can range from 0 to 1, maximum and minimum Synergy values are 1 and −1, respectively.
Caco-2 cells were seeded at 10^5 cells/well onto a 96-well plate. Enhancer solutions (100 μl) were applied for 30 minutes. 10 μl of reagent from an MTT kit (American Type Culture Collection, Rockville, Md.) was applied to each well for 5 hours, after which 100 μl of detergent was applied to each well and allowed to incubate in the dark at room temperature for about 40 hours. Absorbance was read at 570 nm (MTT dye) and 650 nm (detergent). Toxicity potential (TP) values are reported as the fraction of nonviable cells, as compared to the negative control, DMEM. TP values range from 0 to 1, with 0 indicating no mitrochondrial toxicity, and 1 representing maximum toxicity.

[2] = tested on: B. thailendensis; experiment: Minimum inhibitory concentration, broth microdilution; assay type: cell-based; conditions: 18 hours, 37° C.
Method: Minimum inhibitory concentration against B. thailendensis was determined. Broth microdilution method was followed for MIC determination. Briefly, fresh cultures were grown on the day of experiment using the protocol described below.
Low sodium Leuria-Bertani (LSLB) broth (10 g tryptone 1-1, 5 g yeast extract 1-1, 5 g NaCl 1-1) made in ultrapure water and sterilized via autoclaving (121° C., 15 min) was used for culturing B. thailendensis. Culturing protocol was same as given above for E. coli.
The cultures were adjusted to 5.5×10^5 cfu/ml and used within 30 minutes to minimize change in bacterial counts. Cultures were dispensed in 96-well cell culture polypropylene plates (Corning, Lowell, Mass.) at 90 μl/well. Serial dilutions of test formulations were made at 10× concentration. Inoculums in each well were incubated with 10 μl of test formulation dilutions for 18 hours at 37° C. under humidified conditions. At the end of incubation period, the plates were visibly inspected for bacterial growth. Colonies were counted for selected wells by plating culture dilutions on LSLB plates.

[3] = tested on: Primary epidermal keratinocyte cultures (HEKa); experiment: Keratinocyte cytotoxicity (LC50), MTT; assay type: cell-based, human; conditions: HEKa cells
Method: Primary epidermal keratinocyte cultures from an adult human source (HEKa) were purchased from Invitrogen Corp (Carlsbad, Calif.) and used for all cytotoxicity experiments. Cells were maintained in a humidified incubator (37° C., 5% CO2), in EpiLife medium with 60 μM calcium and phenol red, supplemented with 10 ml/l human keratinocyte growth supplement, 5 IU/ml penicillin and 5 μg/ml streptomycin. All components of growth media were purchased from Invitrogen Corp (Carlsbad, Calif.). Cells were grown to 70-80% confluence in cell culture flasks (Corning, Lowell, Mass.) as per suppliers' protocols.
At the end of the growth period, keratinocyte cells were seeded at a density of 10^4 cells/well in 96-well tissue culture treated polystyrene plates (Corning, Lowell, Mass.) and incubated overnight to allow cell attachment. Cells were supplied with fresh EpiLife medium (90 μl/well) at the start of experiment, followed by application of test formulations (10 μl/well). The final concentration of test formulations in each well was 0.0001% w/v. This concentration limit was determined based on the LC50 values of component chemicals for HEKa cell line, which were determined in a separate experiment. The cells were incubated with the test formulations for 1 hour. […] The plates were incubated for 16 hours in a humidified environment and absorbance was read at 570 nm.

[4] = tested on: Caco-2 monolayers; experiment: Permeability of tritium-labeled mannitol or 70 kDa dextran across Caco-2 monolayers
Method: (§1) Solutions containing CPEs and 1 μCi/ml of tritium-labeled mannitol or 70 kDa dextran (American Radiolabeled Chemicals, St. Louis, Mo.) were applied to the apical side of Caco-2 monolayers. Samples were taken from the basolateral compartment every 10 minutes for 1 hour and the radiolabeled contents were analyzed with a scintillation counter (Packard Tri-Carb 2100 TR, Meriden, Conn.).
(§2) where ΔM is the amount of solute transported across the barrier in the time Δt, CM is the concentration of solute in the apical compartment, and Axs is the cross-sectional area of epithelium in contact with the apical solution.
(§3) Positive control experiments were performed on BD Biocoat™ filter supports in the absence of cells.

[5] = tested on: Caco-2 monolayers; experiment: Transwell permeability of sulforhodamine-B or FITC-insulin with PPS; assay type: cell-based, human
Excerpt: The withdrawn sample was immediately replaced with an equivalent amount of the experimental media.

[6] = tested on: Caco-2 monolayer; conditions: 0.1% enhancer (total), 10 min
Method: The Examples described herein used 1% Triton X-100 as the positive control.
All TEER values were normalized by their initial values.
where TEERCPE and TEER+ are the resistance values (% of initial) of the enhancer solution and positive control solution, respectively, after 10 minutes of exposure. EP lies on a scale of 0 to 1, with 1 representing maximum enhancement as compared to the positive control.
Caco-2 cell line HTB-37 (ATCC, Rockville, Md.), derived from human colon cells, was used for all experiments. Cells were maintained in DMEM supplemented with 25 IU/ml of penicillin, 25 mg/L of streptomycin, 250 ug/L of amphotericin B and 100 ml/L of fetal bovine serum. Monolayers were grown on BD Biocoat™ collagen filter supports (Discovery Labware, Bedford, Mass.) according to supplier instructions. […]
(§4) Upper filter supports containing viable Caco-2 monolayers were transferred into a 24-well BD Falcon plate and 1 ml of media was dispensed into each basolateral compartment. Solutions containing the CPE (“enhancer solutions”) were applied to the apical compartment and TEER readings were taken at 10 minutes. TEER recovery was assessed by removing enhancer solutions after 30 minutes, applying fresh media, and measuring TEER values at 24 hours.

[7] = tested on: Caco-2 cells; conditions: 0.1% enhancer
Method: Enhancer solutions (100 μl) were applied for 30 minutes. 25 μl of the solution was then transferred to a fresh 96-well plate and mixed with 25 μl of LDH reagent from the CytoTox 96® assay (Promega, Madison, Wis.) and allowed to react for 30 minutes in the dark at room temperature. Stop solution (25 μl) was then added to each well, and the absorbance was read at 490 nm. LDH potential (LP) values are reported as the fraction of maximal LDH release, as determined by the positive control lysis solution provided with the assay kit (˜1% Triton-X100).
Equation 5 was used to assess the relative contribution of transcellular and paracellular pathways to permeability of the intestinal epithelium. […] According to Equation 4, the line EP=LP corresponds to enhancers that act predominantly by the transcellular route (paracellular contributions are negligible). Enhancers lying on the vertical EP axis primarily utilize the paracellular pathway, since there is no relationship between EP and LP when transcellular contributions are negligible. The relative contribution of the paracellular pathway is higher for enhancers falling closer to the EP axis than to the EP=LP line.

[8] = tested on: Caco-2 monolayers
Method: as §4

[9] = in vitro; conditions: human, Caco-2
Method: as §1, §2, §3

[10] = tested on: Caco-2 cells; experiment: Calcein entry into epithelial cells, fluorescence microscopy; assay type: cell-based, human; conditions: 0.01% PPS, 0.01% (w/v) calcein
Method: A solution containing a permeation enhancer and 0.01% (w/v) calcein dissolved in phosphate buffered saline was applied to Caco-2 cells. After 30 minutes, solutions were removed and replaced with a solution containing only calcein. After 1 hour, samples were washed 3× with phosphate buffered saline and viewed with a Zeiss fluorescence microscope.

[11] = tested on: Caco-2 monolayer; experiment: Confocal laser microscopy of FITC-insulin permeation with PPS; assay type: cell-based, human; conditions: 5 hours
Excerpt: Following fixation, cells were gently washed with HBSS, membranes gently removed from the plastic insert, and were mounted on a microscopy slide with DAPI containing cell mounting media (Vectashield® Hardset®, Vector Laboratories, Burlingame, Calif.). All samples were imaged on a confocal microscope (Leica and Olympus Fluoview 500).

[12] = tested on: intestinal epithelium; experiment: Intestinal tissue histology after PPS; assay type: in vivo, rat; conditions: 0.1% and 1% w/v PPS, 0.5 ml, 5 hrs, SD rats
Method: Histological studies were performed to evaluate the possibility of damage caused by PPS in the intestine. […] The sections were stained using hematoxylin-eosin staining and imaged at 50× magnification using an inverted light microscope to determine signs of pathological changes.

[13] = tested on: Caco-2 cell line (HTB-37)
Method: 10 μL of MTT solution (5 mg/mL) was added to each well for 4 h (37° C.), after which 100 μL of 100% DMSO was applied and the plates were incubated for 1 hr with moderate shaking Absorbance was measured at 570 nm using a Tecan Saffire™ fluorescent microplate reader (Tecan Group Ltd, Mannedorf, Switzerland).

[14] = tested on: Caco-2 monolayers; experiment: TEER over time with PPS (Example 5); assay type: cell-based, human; conditions: for decrease in TEER (% of initial value): 5 hours
Method: Caco-2 cell line HTB-37 (ATCC, Rockville, Md.), derived from human colon cells, was used for all experiments. Cells were maintained in DMEM supplemented with 25 IU/ml of penicillin, 25 mg/L of streptomycin, 250 μg/L of amphotericin B and 100 ml/L of fetal bovine serum. Monolayers were grown on BD Biocoat™ HTS collagen filter supports (BD Biosciences, Bedford, Mass.) according to supplier instructions. At the end of the growth period, the integrity of the cell monolayer was confirmed by transepithelial electrical resistance (TEER) measurements (Millicell-ERS voltohmmeter, Millipore, Billerica, Mass.). Only monolayers with TEER values in the range of 150-200 Ω-cm^2 were used for further experimentation.

[15] = tested on: Caco-2 monolayers; experiment: TEER reversibility after PPS exposure; assay type: cell-based, human; conditions: 0.03% w/v PPS for 10 minutes or 1 hour; within 24 hours of removal
[16] = Plasma sCT concentration after intestinal injection of sCT with or without PPS; assay type: in vivo, rat; conditions: 1% w/v PPS with sCT 3 mg/kg, SD rats
Method: Adult male Sprague-Dawley (SD) rats of 275-300 g, fasted for 7 hours were used for all studies. A midline abdominal incision of 2.5-3.0 cm was made in animals anesthetized by 1.5-3.0% isoflurane to expose the gastrointestinal system. […] Incision was then closed with sterile vicryl […] (muscular), and Vetbond® tissue glue (skin). Blood samples were collected up to 5 hours by tail vein bleeding (heparinized tubes for plasma Calcium, and EDTA tubes for plasma sCT determination), and plasma was separated for analysis of both pharmacodynamic and pharmacokinetic response. Pharmacodynamic response was measured by quantifying plasma calcium levels using a colorimetric calcium assay kit (Sciencell Laboratories, Carlsbad, Calif.); and pharmacokinetic efficacy was tested by quantifying plasma concentrations of salmon calcitonin (sCT) using an extraction-free ELISA kit (Bachem Americas Inc., Torrance, Calif.) following manufacturer's protocols.

For Sodium laureth sulfate [SLA], the TP [1] was 0.88.

With sorbitan monolaurate [S20] the MIC [2] was “low antibacterial potency” and the LC50 [3] was “negligible toxicity”.

With dextran [reference compound] the “average permeability in the absence of CPEs” value ([4]; no CPE, Caco-2 monolayers) was 4.9×10^−7±2.3×10^−7.

In the case of “FITC-insulin: tracer molecule, FITC-insulin (˜6,000 da)”, the “Apparent Permeability (Papp)” value ([5]; Caco-2) is reported as 15.6 ± 0.7 10^−6 cm/s.

In the case of `CCN(CC)c1ccc2c(-c3ccc(S(=O)(=O)O)cc3S(=O)(=O)[O-])c3ccc(=[N+](CC)CC)cc-3oc2c1` [Sulforhodamine-B], the “% Transport” value ([5]; PPS 0.01%, 0.15 mg) is reported as 3.3 ± 0.4%, the “Apparent Permeability (Papp)” value ([5]; PPS 0.01%, 0.15 mg) is reported as 6.0 ± 0.6 10^−6 cm/s and the “% Transport” value ([5]; PPS 0.03%, 0.15 mg) is reported as 5.1 ± 0.9%. For the same compound, the “Apparent Permeability (Papp)” value ([5]; PPS 0.03%, 0.15 mg) was 9.1 ± 1.6 10^−6 cm/s, the “% Transport” value ([5]; no PPS, 0.15 mg) was 1.9 ± 1.3% and the “Apparent Permeability (Papp)” value ([5]; no PPS, 0.15 mg) was 3.5 ± 2.3 10^−6 cm/s.

`c1ccc(N2CCNCC2)cc1` [PPZ, Phenyl piperazine] gave an EP [6] of 0.95, a K [7] of 0.86 and a TP ([1]; 0.1% enhancer (total), 30 min) of 0.09. The “TEER recovery, % of original value” ([8]; after removal of 0.1% PPZ, within 24 hours) was 100%, the “increase of 70 kDa dextran permeability” value ([4]; enhancer at 0.1%, 70 kDa dextran) was greater than 11 fold and the “increase of mannitol permeability” value ([4]; enhancer at 0.1%, mannitol) was “more than 14 fold”.

`OC[C@@H](O)[C@@H](O)[C@H](O)[C@H](O)CO` [mannitol, reference compound] showed a Papp A→B at 1 h, 1 μCi/ml [9] of 0.43 ×10⁻⁶ cm/s.

In the case of `CCCCCCCCCC[N+](C)(C)C.[Br-]` [DTAB, Decyltrimethyl ammonium bromide], the TP ([1]; 0.1% enhancer (total), 30 min) is reported as 0.56.

In the case of `CCCCCCCCCCCCCCCC[N+](C)(C)CCCS(=O)(=O)[O-]` [PPS, Palmityldimethyl ammonio propane sulfonate], the “epithelial cells with calcein transport into the cell” value [10] is reported as “more than 75%”, the “increase of FITC-insulin transport across the monolayer (fluorescence intensity)” value ([11]; 0.01% PPS) is reported as 1.3 fold and the “increase of FITC-insulin transport across the monolayer (fluorescence intensity)” value ([11]; 0.03% w/v PPS) is reported as 3.1 fold. The “pathological damage to the intestinal epithelium” value [12] was “no evidences of necrosis or specific inflammation”, the cell viability [13] was roughly 88% and the “toxicity on Caco-2 cells” value ([13]; Caco-2) was “no detectable toxicity”. For the same compound, the “decrease in TEER (% of initial value)” value ([14]; 0.01% w/v PPS) was 50%, the “decrease in TEER (% of initial value)” value ([14]; 0.03% w/v PPS) was roughly 70% and the “drop in TEER” value ([14]; higher concentration (0.03% w/v PPS), 15 minutes) was −50%. For the same compound, the “increase in sulforhodamine transport over negative control” value ([5]; 0.01% PPS) was 1.7 fold, the “increase in sulforhodamine transport over negative control” value ([5]; 0.03% PPS) was 2.6 fold and the “enhancement of FITC-insulin transport” value ([5]; 0.03% w/v PPS) was 2.3 fold. For the same compound, the “enhancement of FITC-insulin transport” value ([5]; lower concentrations of PPS (0.01% w/v)) was “did not increase significantly”, the TP ([1]; 0.01% (w/v) enhancer, 30 min) was 0 and the “TEER values returned (% of initial)” value [15] was 90-100%. For the same compound, the “cell monolayer structure by TEER recovery” value [8] was “did not damage cell monolayer structure” and the “enhancement of systemic sCT availability based on peak plasma concentrations” value [16] was 45-50 fold.

Work on benzalkoniium chloride [BZK] yielded an MIC [2] of 0.00048 % w/v and an LC50 [3] of 0.00078 % w/v.
